In series [1] the test system is A549. Nature of the series: Antiproliferative activity against human A549 cells assessed as reduction in cell viability by CCK8 assay. In kind it is functional, cell-based.
For the next series, the system named is Huh-7. Nature of the series: Antiproliferative activity against human Huh-7 cells assessed as reduction in cell viability by CCK8 assay. In kind it is functional, cell-based.
Series [2] has as its system A549. Put plainly: Antiproliferative activity against human A549 cells assessed as reduction in cell viability incubated for 72 hrs by CCK8 assay. The series is classed as functional, cell-based.
Series [3] in a line: Cytotoxicity against mouse RAW264.7 cells assessed as reduction in cell viability incubated for 72 hrs by CCK8 assay. In kind it is toxicity, cell-based.
The test system of another series is Colon 26. Nature of the series: Antiproliferative activity against mouse Colon 26 cells assessed as reduction in cell viability incubated for 72 hrs by CCK8 assay. In kind it is functional, cell-based. The conditions noted are these: Colon 26, 72 h.
The next series relates to K562. Nature of the series: Antiproliferative activity against human K562 cells assessed as reduction in cell viability by CCK8 assay. In kind it is functional, cell-based.

This passage reports IC50 results from ChEMBL document CHEMBL5634183, “Total Synthesis of Bipenicilisorin and Assignment of the Absolute Configuration” (J Nat Prod, 2024).

For the compound `COC(=O)c1cc2cc(OC)c(-c3c(OC)cc4cc(C(=O)OC)oc(=O)c4c3O)c(O)c2c(=O)o1`, the IC50 in the series on A549 [1] was 6.94 µM; in the series with Huh-7, 2.59 µM; with A549 [2] (Homo sapiens, A549, 72 h), 36.9 µM; with A549 [2] (a549), 60 µM; with Colon 26, more than 50 µM; in the series with K562, 6.87 µM. Besides, the IC50 at 72 h in series [3] is more than 50 µM.
